Measured values: patent US4141988A, “2,9-Dioxatricyclo[4,3,1,0^3,7 ]decane derivatives, processes for their preparation and pharmaceutical compositions thereof” (Kali-Chemie Pharma GmbH, priority 1977, dated 1979)

Key:
rhesus monkey [1] = experiment: step-irritation test in the rhesus monkey; format: in vivo
[2] = inhibition of intestinal motility in mice; settings: mouse, in vivo, po, read-out: intestinal motility inhibiting ED50
bradykinin induced pain = bradykinin induced pain test in rats (s.c.); format: in vivo, rat
Procedure: For example, the MED of both, the test substance 32-527 and morphine, is 0,56 mg/kg in the so-called step-irritation test in the rhesus monkey upon s.c. administration. Upon s.c. administration, the ED50 of the two substances for inhibiting the bradykinin induced pain in rats are as follows: […]

[3] = system: mice, rats and rhesus monkeys; experiment: analgesic activity in mice, rats and rhesus monkeys; format: in vivo
acute toxicity = format: in vivo; settings: compared with propoxyphene or profadol
rhesus monkey [4] = experiment: self-administration test (addiction) in the rhesus monkey; format: in vivo; settings: contrary to morphine
Procedure: test substance No. 32-527 < 5,6 mg/kg and morphine 3,6 mg/kg.

| Structure (SMILES) | minimal effective dose (rhesus monkey [1]; Macaca mulatta, sc, read-out: MED) [mg/kg] | ED50 [2] [mg/kg] | ED50 for inhibiting the bradykinin induced pain (bradykinin induced pain) | analgesic activity compared with morphine ([3]; enteral and parenteral) | analgesic activity ([3]; enteral and parenteral administration) | MED (rhesus monkey [1]; step-irritation test, rhesus monkey, s.c.) | acute toxicity (acute toxicity) | addiction syndroms in the self-administration test (rhesus monkey [4]) |
| --- | --- | --- | --- | --- | --- | --- | --- | --- |
| CN1CC[C@]23c4c5ccc(O)c4O[C@H]2[C@@H](O)C=C[C@H]3[C@H]1C5 [morphine, reference compound] | 0.56 | 39 | 3,6 mg/kg |  |  |  |  |  |
| COC1OC2OC3(C)C(NCCc4ccccc4Cl)CC(C2C)C13.Cl (stereo not drawn) [test substance No. 32-527, 4 α-(o-chlorophenethylamino)-3,10-dimethyl-8-methoxy-2,9-dioxatricyclo[4,3,1,0^3,7]decane hydrochloride] |  |  | < 5,6 mg/kg | of about the same order as that of morphine | exhibits analgesic activities | 0,56 mg/kg | similarly low toxicity as that of propoxyphene or profadol | practically no addiction syndroms are observed |
